In test [1] the test system is prothrombinase (bovine FXa and FVa) on washed human platelets activated by convulxin and thrombin. Briefly: Platelet-dependent prothrombinase assay. Conditions: 1 μM, washed human platelets with convulxin and thrombin, thrombin Vmax with S-2238, n = 8. It counts as biochemical. As for the experimental part:
Human whole blood was collected from healthy volunteers by venipuncture into 3.2% sodium citrate. Washed platelets were prepared from whole blood collected by venipuncture into 3.8% sodium citrate and acid-citrate-dextrose (ACD). Platelet-rich plasma (PRP) was prepared by centrifugation of whole blood at 200 g for 20 min. Platelets were isolated from the PRP by centrifugation at 1000 g for 10 min with 0.1 μg ml^−1 prostacyclin (PGI2) (Sigma-Aldrich). The resulting pellet was resuspended with modified Tyrode’s buffer (129 mM NaCl, 20 mM HEPES, 12 mM NaHCO3, 2.9 mM KCl, 1.0 mM MgCl2, 0.34 mM Na2HPO4, 5 mM glucose, pH 7.3), ACD, and 0.1 μg ml^−1 PGI2. Platelets were then washed by re-pelleting at 1000 g for 10 min and re-suspending with modified Tyrode’s buffer.
Effects on coagulation factor enzymatic activity were determined using a modification of a previously described prothrombinase assay, [55]. Washed human platelets (8 × 10^5 reaction^−1) were incubated at 37 °C with either a buffer blank or 375 ng ml^−1 convulxin (Centerchem, Norwalk, CT) and 5.0 nM thrombin (Haematologic Technologies) in modified Tyrode’s buffer containing 2.9 mM CaCl2 and 0.05% wt vol^−1 fatty acid-free bovine serum albumin (BSA). After 7 min, 1 μM investigational peptide or protein, or a buffer blank, was added, followed 3 min later by bovine FXa (3 nM) and FVa (6 nM) (Haematologic Technologies). […]

For test [2], the system named is fibrin formation in whole human blood. Briefly: Whole blood microfluidic flow assay. It is filed as cell-based. The following applies: whole human blood over collagen, 10 min, wall shear rate 100 s^-1, 1 μM peptide or annexin V, heparin 15 USP ml^-1, n = 6. From the text: Effects on whole blood platelet activation and accumulation, as well as fibrin formation, were examined using a modification of a previously described microfluidic flow assay. A custom polydimethylsiloxane microfluidic flow device containing four channels, each with a height of 100 μm and width of 500 μm, was vacuum mounted to a glass slide patterned with a type I fibrillar collagen strip (Chrono-log). The microfluidic flow device channels were oriented perpendicular to the patterned collagen strip, resulting in a 50 μm patch of collagen across the width of each channel. Whole blood was labeled with a Pacific Blue anti-human CD41 antibody (BioLegend) for 10 min, followed by the addition of 30 μg ml^−1 Alexa Fluor 647 human plasma fibrinogen conjugate (Life Technologies) and either 1 μM NBD labeled investigational peptide, 1 μM annexin V (BioVision), or 15 USP ml^−1 heparin. Immediately before the assay, the whole blood mixture was recalcified to 7.5 mM CaCl2. The whole blood was then pulled through the device channels for 10 min at wall shear rate 100 s^−1 using a PhD Ultra syringe pump (Harvard Apparatus, Holliston, MA). […] Fluorescence intensities and platelet surface area coverages were measured using ImageJ (NIH, Bethesda, MD). […]

The subject of test [3] is P-selectin positive platelets. Briefly: Flow cytometry of binding to platelets. It counts as cell-based. The following applies: washed human platelets, 1 μM NBD labeled peptide, 30 min, n = 6. As for the experimental part:
Human whole blood was collected from healthy volunteers by venipuncture into 3.2% sodium citrate. Washed platelets were prepared from whole blood collected by venipuncture into 3.8% sodium citrate and acid-citrate-dextrose (ACD). Platelet-rich plasma (PRP) was prepared by centrifugation of whole blood at 200 g for 20 min. Platelets were isolated from the PRP by centrifugation at 1000 g for 10 min with 0.1 μg ml^−1 prostacyclin (PGI2) (Sigma-Aldrich). The resulting pellet was resuspended with modified Tyrode’s buffer (129 mM NaCl, 20 mM HEPES, 12 mM NaHCO3, 2.9 mM KCl, 1.0 mM MgCl2, 0.34 mM Na2HPO4, 5 mM glucose, pH 7.3), ACD, and 0.1 μg ml^−1 PGI2. Platelets were then washed by re-pelleting at 1000 g for 10 min and re-suspending with modified Tyrode’s buffer. Washed platelets were obtained from the whole blood as described above. The platelets were resuspended in modified Tyrode’s buffer containing 2 mM CaCl2, counted, and diluted to 2 × 10^4 platelets μL^−1. Platelets were stimulated with either 1 IU ml^−1 thrombin (Chrono-log, Havertown, PA), 250 ng ml^−1 convulxin (Centerchem), 1 IU ml^−1 thrombin and 250 ng ml^−1 convulxin, or left unstimulated for 10 min at room temperature. […] The samples were then immediately fixed in 1% paraformaldehyde, diluted, and analyzed on a MoFlo Astrios EQ flow cytometer (Beckman Coulter, Brea, CA) with appropriate color compensation.
For orientation: Flow cytometry measures light scatter and fluorescence of single cells or particles in a stream.

As to “H-GGDYDKIGKNDA-NH2 [C2BL3-L, NH2-GGDYDKIGKNDA-CONH2]”, in test [1], the “reduction in prothrombinase activity” value worked out at 17%.
For heparin, in test [2], the “fibrin formation on adherent platelets (in words)” value is listed as “equivalent fibrin formation inhibition to that of the MARCKS ED peptides”.

B1: annexin V: PS binding protein, positive control (protein)
chain: MAQVLRGTVTDFPGFDERADAETLRKAMKGLGTDEESILTLLTSRSNAQRQEISAAFKTLFGRDLLDDLKSELTGKFEKLIVALMKPSRLYDAYELKHALKGAGTNEKVLTEIIASRTPEELRAIKQVYEEEYGSSLEDDVVGDTSGYYQRMLVVLLQANRDPDAGIDEAQVEQDAQALFQAGELKWGTDEEKFITIFGTRSVSHLRKVFDKYMTISGFQIEETIDRETSGNLEQLLLAVVKSIRSIPAYLAETLYYAMKGAGTDDHTLIRVMVSRSEIDLFNIRKEFRKNFATSLYSMIKGDTSGDYKKALLLLCGEDD
With B1, in test [2], the “fibrin formation on adherent platelets (in words)” value is recorded as “equivalent fibrin formation inhibition to that of the MARCKS ED peptides”. Moreover, the “labeling of unstimulated platelets” value in test [3] was “Neither D-MARCKS ED nor annexin V labeled the unstimulated platelets”.

(Values after publication PMC5487340, “Peptides derived from MARCKS block coagulation complex assembly on phosphatidylserine” (Scientific Reports, 2017).)
